# Experimental data as given in patent publication US20160137746A1, “METHODS FOR TREATING HIGH CARDIOVASCULAR RISK PATIENTS WITH HYPERCHOLESTEROLEMIA” (Sanofi Biotechnology, priority 2014, published 2016).
# Experiments:
# [1] = tested on: high cardiovascular risk patients with hypercholesterolemia; assay: ODYSSEY COMBO II: lipid efficacy of alirocumab vs ezetimibe, add-on to maximally tolerated statin; assay type: in vivo, human; settings: for Calculated LDL-C percent change from baseline, LS mean (SE): ITT population, MMRM, alirocumab 75 Q2W/Up150 Q2W, ezetimibe 10
# Text: Each of the COMBO studies was randomized, double-blinded, and placebo-controlled.
# The primary efficacy endpoint for each study was the difference between treatment arms in the percent change in LDL-C from baseline to Week 24.
# Apo, apolipoprotein; HDL-C, high-density lipoprotein cholesterol; ITT, intent-to-treat; LDL-C, low-density lipoprotein cholesterol; Lp(a), lipoprotein (a); TG, triglycerides.
# COMBO II was a Phase 3, randomized, double-blind, active-controlled, parallel-group, multinational 104-week study. The study enrolled high-risk patients with uncontrolled hypercholesterolemia on stable, maximally tolerated daily statin therapy. Unlike COMBO I, with a placebo arm, COMBO II incorporated an active-treatment arm (ezetimibe) with double-dummy design (FIG. 1B) and patients were not allowed to receive any other lipid lowering therapies besides statin and their randomized treatment.
# After randomization, patients entered a double-blind, double-dummy treatment period of 104 weeks.
# Primary analyses of efficacy endpoints were conducted using an ITT approach (based on the ITT population defined above), including all lipid data, regardless of whether the patient was continuing therapy or not. This corresponds to ITT estimands, defined for primary and key secondary endpoints. In addition, analyses were also conducted using an on-treatment approach (based on the mITT population defined above), including lipid data collected during the efficacy treatment period. This corresponds to on-treatment estimands of key secondary endpoints.
# With regards to the primary efficacy analysis (ITT approach), the percent change in calculated LDL-C from baseline to Week 24 was analyzed using a mixed-effect model with repeated measures (MMRM) approach.
# [2] = tested on: high cardiovascular risk patients with hypercholesterolemia; settings: human, in vivo, 52 weeks
# Description: (§1) Safety assessments during both studies were as follows. Safety was assessed through adverse event (AE) reporting (including adjudicated cardiovascular events), laboratory analyses, and vital signs measurement. Since the LDL-C-lowering effects of PCSK9 inhibition on top of a statin are unknown, a number of AEs were defined as being of special interest and were monitored, including alanine aminotransferase abnormalities, allergic events, hemolytic anemia, pregnancy, overdose with study drug, neurologic events, ophthalmic events, and local injection site reactions.
# (§2) Safety Analyses were as follows. AEs (including adjudicated cardiovascular events), laboratory parameters, and vital signs were reported descriptively, based on the safety population (all randomized patients who received at least 1 dose or partial dose of study treatment). The safety analysis focused on the treatment-emergent AE period defined as the time from the first double-blind dose to the last double-blind dose of the investigational product +70 days (10 weeks).
# (§3) The safety population included all randomized patients who received at least one dose or part of a dose of the double-blind IMP.
# (§4) Safety analyses were descriptive, performed on the safety population according to treatment actually received. For analysis of TEAE and PCSA, the safety analysis focused on the TEAE period defined as the time from the first dose of double-blind IMP administration (capsule or injection, whichever comes first) up to 70 days after the last double-blind injection.
# [3] = tested on: high cardiovascular risk patients with hypercholesterolemia; assay: ODYSSEY COMBO II: safety (TEAEs, adjudicated CV events, laboratory parameters, low LDL-C)
# Description: as §1, §2, §3, §4
# [4] = safety population at 52 weeks, all patients, number (%) of patients
# [5] = treatment period, safety population
smiles,measurement,setting,value
"O=C1[C@H](CC[C@H](O)c2ccc(F)cc2)[C@@H](c2ccc(O)cc2)N1c1ccc(F)cc1 [Ezetimibe, ezetimibe, reference compound]","Achieved LDL-C, median","[1]; 24 weeks, FIG. 7",70 mg/dL
same,"Calculated LDL-C, LS mean (SE) percent change from baseline","[1]; ITT, Week 24",−20.7 (1.9) %
same,"Fasting TGs, LS mean percent change from baseline","[1]; ITT, Week 24",−12.8%
same,"Calculated LDL-C, LS mean (SE) percent change from baseline","[1]; ITT, Week 24, listed as ezetimibe",−20.7%
same,"Calculated LDL-C percent change from baseline, LS mean (SE)",[1]; Week 4,−25.3 (1.6) %
same,"Calculated LDL-C percent change from baseline, LS mean (SE)",[1]; Week 8,−24.3 (1.7) %
same,"Calculated LDL-C percent change from baseline, LS mean (SE)",[1]; Week 12,−21.8 (1.8) %
same,"Calculated LDL-C percent change from baseline, LS mean (SE)",[1]; Week 16,−23.0 (1.8) %
same,Fasting TGs reduced from baseline,[1]; Week 24,13.3%
same,Mean achieved LDL-C,[1]; Week 24,82.5 (2.0) mg/dL
same,"Calculated LDL-C percent change from baseline, LS mean (SE)",[1]; Week 24,−20.7 (1.9) %
same,"Apo-B - Percent change from baseline to Week 24, LS mean vs. baseline","[1]; Week 24, On-treatment analysis",−19.1 (1.4)
same,"Calculated LDL-C - Percent change from baseline to Week 24, LS mean vs. baseline","[1]; Week 24, On-treatment analysis",−21.8 (1.8) %
same,"Non-HDL-C - Percent change from baseline to Week 24, LS mean vs. baseline","[1]; Week 24, On-treatment analysis",−20.2 (1.6)
same,HDL-C percent change from baseline to week 24,"[1]; Week 24, on-treatment analysis",0.8 (1.1)
same,Lipoprotein(a) percent change from baseline to week 24,"[1]; Week 24, on-treatment analysis",−5.6 (1.9)
same,Total cholesterol percent change from baseline to week 24,"[1]; Week 24, on-treatment analysis",−15.2 (1.2)
same,Triglycerides (fasted) percent change from baseline to week 24,"[1]; Week 24, on-treatment analysis",−13.3 (2.0)
same,"Calculated LDL-C percent change from baseline, LS mean (SE)",[1]; Week 36,−19.3 (2.0) %
same,"Calculated LDL-C percent change from baseline, LS mean (SE)",[1]; Week 52,−18.3 (2.1) %
same,TEAE preferred term: Influenza,[2],7 (2.9)
same,Adjudicated cardiovascular events,[3]; in vivo,3.7%
same,SOC gastrointestinal disorders,[3]; in vivo,13.7%
same,SOC infections and infestations,[3]; in vivo,25.3%
same,SOC musculoskeletal and connective tissue disorders,[3]; in vivo,17.0%
same,Treatment-emergent local injection site reactions,[3]; in vivo,0.8%
same,Patients who experienced at least one TEAE,[3]; mean 58 weeks' follow-up,67.2%
same,Serious adverse event,[3]; mean 58 weeks' follow-up,17.8%
same,TEAE leading to death,[3]; mean 58 weeks' follow-up,4 (1.7%) n (%)
same,TEAEs leading to treatment discontinuation,[3]; mean 58 weeks' follow-up,5.4%
same,Laboratory parameters: Blood glucose increased,[3]; [4],3 (1.2)
same,Laboratory parameters: Hemoglobin decreased,[3]; [4],2 (0.8)
same,Patients experiencing any TEAE,[3]; [4],162 (67.2)
same,TEAE preferred term: Accidental overdose,[3]; [4],16 (6.6)
same,TEAE preferred term: Angina pectoris,[3]; [4],11 (4.6)
same,TEAE preferred term: Arthralgia,[3]; [4],9 (3.7)
same,TEAE preferred term: Dizziness,[3]; [4],13 (5.4)
same,TEAE preferred term: Headache,[3]; [4],10 (4.1)
same,TEAE preferred term: Hypertension,[3]; [4],10 (4.1)
same,TEAE preferred term: Myalgia,[3]; [4],12 (5.0)
same,TEAE preferred term: Nasopharyngitis,[3]; [4],9 (3.7)
same,TEAE preferred term: Upper respiratory tract infection,[3]; [4],14 (5.8)
same,TEAE system organ class: Blood and lymphatic system disorders,[3]; [4],8 (3.3)
same,TEAE system organ class: Cardiac disorders,[3]; [4],29 (12.0)
same,TEAE system organ class: Eye disorders,[3]; [4],9 (3.7)
same,TEAE system organ class: Gastrointestinal disorders,[3]; [4],33 (13.7)
same,TEAE system organ class: General disorders and administration site conditions,[3]; [4],26 (10.8)
same,TEAE system organ class: Infections and infestations,[3]; [4],61 (25.3)
same,"TEAE system organ class: Injury, poisoning, and procedural complications",[3]; [4],33 (13.7)
same,TEAE system organ class: Investigations,[3]; [4],21 (8.7)
same,TEAE system organ class: Metabolism and nutrition disorders,[3]; [4],18 (7.5)
same,TEAE system organ class: Musculoskeletal and connective tissue disorders,[3]; [4],41 (17.0)
same,"TEAE system organ class: Neoplasms, benign, malignant and unspecified (including cysts and polyps)",[3]; [4],7 (2.9)
same,TEAE system organ class: Nervous system disorders,[3]; [4],40 (16.6)
same,TEAE system organ class: Psychiatric disorders,[3]; [4],12 (5.0)
same,TEAE system organ class: Renal and urinary disorders,[3]; [4],13 (5.4)
same,TEAE system organ class: Reproductive system and breast disorders,[3]; [4],2 (0.8)
same,"TEAE system organ class: Respiratory, thoracic, and mediastinal disorders",[3]; [4],22 (9.1)
same,TEAE system organ class: Skin and subcutaneous tissue disorders,[3]; [4],15 (6.2)
same,TEAE system organ class: Vascular disorders,[3]; [4],20 (8.3)
same,Patients with 2 consecutive calculated LDL-C value <15 mg/dL,[3]; [5],0/230
same,Patients with 2 consecutive calculated LDL-C value <25 mg/dL,[3]; [5],0/230
same,Patients with 2 consecutive calculated LDL-C value <25 mg/dL,"[3]; treatment period, safety population, listed as ezetimibe",none
